From US6982348B2, “Aminoethanol derivatives” (Takeda Pharmaceutical Company Limited, priority 2001, dated 2006)

Row | melting point | SMILES
1 | 168 to 169 °C | CC(C)(C)OC(=O)N[C@H](Cc1cccc(CC(F)(F)C(F)F)c1)[C@@H](O)c1ccc(F)cc1 (racemic) [Example 337, tert-butyl N-[(1RS,2SR)-2-(4-fluorophenyl)-2-hydroxy-1-[3-(2,2,3,3-tetrafluoropropyl)benzyl]ethyl]carbamate]
2 | 165 to 166 °C | CN(C)C(=O)c1ccc([C@H](O)[C@@H](Cc2cccc(OC(F)(F)C(F)F)c2)NC(=O)c2cccc3c2C=CCCC3)cc1 (racemic) [Example 312, N-[(1RS,2SR)-2-[4-[(dimethylamino)carbonyl]phenyl]-2-hydroxy-1-[3-(1,1,2,2-tetrafluoroethoxy)benzyl]ethyl]-6,7-dihydro-5H-benzo[a]cycloheptene-1-carboxamide]
3 | 99 to 101 °C | CC(C)(C)C(F)(F)c1ccc(C[C@@H](NC(=O)c2cccc3c(Cl)cccc23)[C@@H](O)c2cccc(Cl)c2)cc1 (racemic) [Example 381, 5-chloro-N-{(1RS,2SR)-2-(3-chlorophenyl)-1-[4-(1,1-difluoro-2,2-dimethylpropyl)benzyl]-2-hydroxyethyl}-1-naphthamide]
4 | 191 to 192 °C | O=C(N[C@H](Cc1ccc(CC(F)(F)C(F)(F)F)cc1)[C@@H](O)c1cccc(Cl)c1)c1ccc(F)c2ccccc12 (racemic) [Example 373, N-[(1RS,2SR)-1-[4-(2,2,3,3,3-pentafluoropropyl)benzyl]-2-(3-chlorophenyl)-2-hydroxyethyl]-4-fluoro-1-naphthamide]
5 | 159 to 160 °C | CC(C)c1cccc(C[C@@H](NC(=O)c2ccc(F)c3ccccc23)[C@@H](O)c2ccc(F)cc2)c1 (racemic) [Example 324, 4-fluoro-N-[(1RS,2SR)-2-(4-fluorophenyl)-2-hydroxy-1-(3-isopropylbenzyl)ethyl]naphthalene-1-carboxamide]
6 | 189 to 191 °C | O=C(N[C@H](Cc1cccc(OC(F)(F)C(F)F)c1)[C@@H](O)c1ccc(-c2ccc(CO)cc2)cc1)c1cccc2c1C=CCCC2 (racemic) [Example 304, N-[(1RS,2SR)-2-[4′-(hydroxymethyl)[1,1′-biphenyl]-4-yl]-2-hydroxy-1-[3-(1,1,2,2-tetrafluoroethoxy)benzyl]ethyl]-6,7-dihydro-5H-benzo[a]cycloheptene-1-carboxamide]
7 | 142 to 143 °C | CC(C)(C)COc1cccc(C[C@@H](NC(=O)c2cccc3c(Cl)cccc23)[C@@H](O)c2cccc(Cl)c2)c1 (racemic) [Example 367, N-[(1RS,2SR)-1-[3-(neopentyloxy)benzyl]-2-(3-chlorophenyl)-2-hydroxyethyl]-5-chloro-1-naphthamide]
8 | 176 to 177 °C | CC(=O)O[C@H](c1ccc(F)cc1)[C@H](Cc1cccc(OC(F)(F)C(F)F)c1)NC(=O)c1cccc2c1C=CCCC2 (racemic) [Example 382, (1RS,2SR)-2-[(6,7-dihydro-5H-benzo[a]cyclohepten-1-ylcarbonyl)amino]-1-(4-fluorophenyl)-3-[3-(1,1,2,2-tetrafluoroethoxy)phenyl]propyl acetate]
9 | 153 to 155 °C | Nc1ccc([C@H](O)[C@@H](Cc2cccc(OC(F)(F)C(F)F)c2)NC(=O)c2cccc3c2C=CCCC3)cc1 (racemic) [Example 322, N-[(1RS,2SR)-2-(4-aminophenyl)-2-hydroxy-1-[3-(1,1,2,2-tetrafluoroethoxy)benzyl]ethyl]-6,7-dihydro-5H-benzo[a]cycloheptene-1-carboxamide]
10 | 184 to 185 °C | O=C(N[C@H](Cc1cccc(C=C(F)C(F)F)c1)[C@@H](O)c1ccc(F)cc1)c1ccc(F)c2ccccc12 (racemic) [Example 336, 4-fluoro-N-[(1RS,2SR)-2-(4-fluorophenyl)-2-hydroxy-1-[3-(2,3,3-trifluoro-1-propenyl)benzyl]ethyl]naphthalene-1-carboxamide]

The remaining lines, values behind:

Row | SMILES | melting point
11 | O=C(Cc1cccc2ccccc12)N[C@H](Cc1ccc(C(F)(F)F)cc1)[C@@H](O)c1ccc(F)cc1 (racemic) [Example 82, N-((1RS,2SR)-2-(4-fluorophenyl)-2-hydroxy-1-((4-(trifluoromethyl)phenyl)methyl)ethyl)-2-(1-naphthalenyl)acetamide] | 186 to 187 °C
12 | O=C(N[C@H](Cc1cccc(OC(F)(F)C(F)F)c1)[C@@H](O)c1ccc(Oc2ccccc2)cc1)c1ccc(F)c2ccccc12 (racemic) [Example 267, 4-fluoro-N-{(1RS,2SR)-2-hydroxy-2-(4-phenoxyphenyl)-1-[3-(1,1,2,2-tetrafluoroethoxy)benzyl]ethyl}-1-naphthamide] | 155 to 156 °C
13 | O=C(N[C@H](Cc1ccc(C(F)(F)F)cc1)[C@@H](O)c1ccc(F)cc1)C(c1ccccc1)C1CCCC1 (mixture of isomers) [Example 110, 2-cyclopentyl-N-[(1RS,2SR)-2-(4-fluorophenyl)-2-hydroxy-1-[4-(trifluoromethyl)benzyl]ethyl]-2-phenylacetamide] | 201 to 202 °C
14 | CC(C)(C)OC(=O)N[C@H](Cc1cccc(OC(F)(F)C(F)F)c1)[C@@H](O)c1ccc(F)cc1 (racemic) [Example 130, tert-butyl N-[(1RS,2SR)-2-(4-fluorophenyl)-2-hydroxy-1-[3-(1,1,2,2-tetrafluoroethoxy)benzyl]ethyl]carbamate] | 145 to 146 °C
15 | O=C(N[C@H](Cc1cccc(SC(F)(F)F)c1)[C@@H](O)c1ccc(F)cc1)c1ccc(F)c2ccccc12 (racemic) [Example 269, 4-fluoro-N-((1RS,2SR)-2-(4-fluorophenyl)-2-hydroxy-1-{3-[(trifluoromethyl)thio]benzyl}ethyl)-1-naphthamide] | 192 to 193 °C
16 | O=C(N[C@H](Cc1ccc(C(F)(F)F)cc1)[C@@H](O)c1ccc(Cl)s1)c1cccc2c1C=CCCC2 (racemic) [Example 198, N-[(1RS,2RS)-2-(5-chloro-2-thienyl)-2-hydroxy-1-[4-(trifluoromethyl)benzyl]ethyl]-6,7-dihydro-5H-benzo[a]cycloheptene-1-carboxamide] | 184 to 185 °C
17 | O=C(NC(Cc1ccc(C(F)(F)F)cc1)C(O)c1ccc(F)cc1)c1ccc2ccccc2c1 (racemic) [Example 14, N-[2-(4-fluorophenyl)-2-hydroxy-1-[[4-(trifluoromethyl)phenyl]methyl]ethyl]-2-naphthalenecarboxamide] | 148 to 150 °C
18 | O=C(N[C@H](Cc1cccc(OC(F)(F)C(F)F)c1)[C@@H](O)c1ccc(O)cc1)c1cccc2c1C=CCCC2 (racemic) [Example 241, N-{(1RS,2SR)-2-hydroxy-2-(4-hydroxyphenyl)-1-[3-(1,1,2,2-tetrafluoroethoxy)benzyl]ethyl}-6,7-dihydro-5H-benzo[a][7]annulene-1-carboxamide] | 167 to 168 °C
19 | O=C(NC(Cc1ccc(C(F)(F)F)cc1)C(O)c1ccc(F)cc1)c1ccc(F)cc1 (racemic) [Example 6, 4-fluoro-N-[2-(4-fluorophenyl)-2-hydroxy-1-[[4-(trifluoromethyl)phenyl]methyl]ethyl]benzamide] | 155 to 179 °C
20 | CC(C)(C)c1ccc(C[C@@H](NC(=O)c2cccc3c2C=CCCC3)[C@@H](O)c2cccc(Cl)c2)cc1 (racemic) [Example 272, N-[(1RS,2SR)-1-(4-tert-butylbenzyl)-2-(3-chlorophenyl)-2-hydroxyethyl]-6,7-dihydro-5H-benzo[a][7]annulene-1-carboxamide] | 142 to 143 °C
21 | O=C(N[C@H](Cc1ccc(C(F)(F)F)cc1)[C@@H](O)c1ccc(F)cc1)c1cccc2c1CCCC2 (racemic) [Example 33, N-[(1RS,2SR)-2-(4-fluorophenyl)-2-hydroxy-1-[4-(trifluoromethyl)benzyl]ethyl]-5,6,7,8-tetrahydronaphthalene-1-carboxamide] | 219 to 221 °C
22 | O=C(N[C@H](Cc1ccc(C(F)(F)F)cc1)[C@@H](O)c1ccc(F)cc1)c1cccc(Cl)c1Cl (racemic) [Example 50, 2,3-dichloro-N-((1RS,2SR)-2-(4-fluorophenyl)-2-hydroxy-1-((4-(trifluoromethyl)phenyl)methyl)ethyl)benzamide] | 187 to 188 °C
23 | CC(C)(C)C(=O)NC(Cc1ccc(C(F)(F)F)cc1)C(O)c1ccc(F)cc1 (racemic) [Example 16, N-[2-(4-fluorophenyl)-2-hydroxy-1-[[4-(trifluoromethyl)phenyl]methyl]ethyl]-2,2-dimethylpropionamide] | 97 to 99 °C
24 | COc1cccc([C@H](O)[C@@H](Cc2cccc(OC(F)(F)C(F)F)c2)NC(=O)c2cccc3c2C=CCCC3)c1 (racemic) [Example 253, N-{(1RS,2SR)-2-hydroxy-2-(3-methoxyphenyl)-1-[3-(1,1,2,2-tetrafluoroethoxy)benzyl]ethyl}-6,7-dihydro-5H-benzo[a][7]annulene-1-carboxamide] | 155 to 156 °C
25 | CC(C)(C)OC(=O)N[C@H](Cc1cccc(OC(F)(F)C(F)F)c1)[C@@H](O)c1ccc(Oc2ccccn2)cc1 (racemic) [Example 257, tert-butyl (1RS,2SR)-2-hydroxy-2-[4-(pyridin-2-yloxy)phenyl]-1-[3-(1,1,2,2-tetrafluoroethoxy)benzyl]ethylcarbamate] | 130 to 131 °C
26 | O=C(N[C@H](Cc1ccc(C(F)(F)F)cc1)[C@@H](O)c1ccc(F)cc1)C1CCCc2ccccc21 (mixture of isomers) [Example 41, N-[(1RS,2SR)-2-(4-fluorophenyl)-2-hydroxy-1-[4-(trifluoromethyl)benzyl]ethyl]-1,2,3,4-tetrahydronaphthalene-1-carboxamide] | 205 to 214 °C
27 | COc1cccc(-c2ccc([C@H](O)[C@@H](Cc3cccc(OC(F)(F)C(F)F)c3)NC(=O)c3cccc4c3C=CCCC4)cc2)c1 (racemic) [Example 298, N-[(1RS,2SR)-2-hydroxy-2-(3′-methoxy[1,1′-biphenyl]-4-yl)-1-[3-(1,1,2,2-tetrafluoroethoxy)benzyl]ethyl]-6,7-dihydro-5H-benzo[a]cycloheptene-1-carboxamide] | 79 to 81 °C
28 | CC(C)(C)OC(=O)NCC(=O)O[C@H](c1ccc(F)cc1)[C@H](Cc1cccc(OC(F)(F)C(F)F)c1)NC(=O)c1cccc2c1C=CCCC2 (racemic) [Example 386, N-(tert-butoxycarbonyl)glycine (1RS,2SR)-2-[(6,7-dihydro-5H-benzo[a]cyclohepten-1-ylcarbonyl)amino]-1-(4-fluorophenyl)-3-[3-(1,1,2,2-tetrafluoroethoxy)phenyl]propyl ester] | 151 to 152 °C
